Measured values reported in publication doi:10.1101/2023.03.24.534094v2 (biorxiv, 2023).
Read-outs that look alike come from different tables or passages of the source. One block for each compound: values may come before it.

Experiments:
Assay in all cases: biochemical
AAK1 = AAK1 (Homo sapiens, UniProt Q2M2I8)
NEK7 = NEK7 (Homo sapiens, UniProt Q8TDX7)
VRK1 = target: T1, VRK1 (Homo sapiens, UniProt Q99986)
T1 sequence (Q99986 1-396): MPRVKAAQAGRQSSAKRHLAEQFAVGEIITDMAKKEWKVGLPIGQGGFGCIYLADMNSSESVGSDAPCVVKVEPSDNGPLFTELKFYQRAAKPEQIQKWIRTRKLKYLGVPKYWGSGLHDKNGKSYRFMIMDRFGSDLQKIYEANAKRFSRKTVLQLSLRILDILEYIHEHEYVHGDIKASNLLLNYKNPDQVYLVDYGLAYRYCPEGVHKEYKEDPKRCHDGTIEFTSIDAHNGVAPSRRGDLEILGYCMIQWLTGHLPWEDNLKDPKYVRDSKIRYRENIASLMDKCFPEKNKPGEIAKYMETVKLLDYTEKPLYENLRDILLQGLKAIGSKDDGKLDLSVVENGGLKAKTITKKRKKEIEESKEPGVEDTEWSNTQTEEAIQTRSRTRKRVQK

BRPF1 = target: T2, BRPF1 (Homo sapiens, UniProt P55201)
T2 sequence (P55201 1-1214): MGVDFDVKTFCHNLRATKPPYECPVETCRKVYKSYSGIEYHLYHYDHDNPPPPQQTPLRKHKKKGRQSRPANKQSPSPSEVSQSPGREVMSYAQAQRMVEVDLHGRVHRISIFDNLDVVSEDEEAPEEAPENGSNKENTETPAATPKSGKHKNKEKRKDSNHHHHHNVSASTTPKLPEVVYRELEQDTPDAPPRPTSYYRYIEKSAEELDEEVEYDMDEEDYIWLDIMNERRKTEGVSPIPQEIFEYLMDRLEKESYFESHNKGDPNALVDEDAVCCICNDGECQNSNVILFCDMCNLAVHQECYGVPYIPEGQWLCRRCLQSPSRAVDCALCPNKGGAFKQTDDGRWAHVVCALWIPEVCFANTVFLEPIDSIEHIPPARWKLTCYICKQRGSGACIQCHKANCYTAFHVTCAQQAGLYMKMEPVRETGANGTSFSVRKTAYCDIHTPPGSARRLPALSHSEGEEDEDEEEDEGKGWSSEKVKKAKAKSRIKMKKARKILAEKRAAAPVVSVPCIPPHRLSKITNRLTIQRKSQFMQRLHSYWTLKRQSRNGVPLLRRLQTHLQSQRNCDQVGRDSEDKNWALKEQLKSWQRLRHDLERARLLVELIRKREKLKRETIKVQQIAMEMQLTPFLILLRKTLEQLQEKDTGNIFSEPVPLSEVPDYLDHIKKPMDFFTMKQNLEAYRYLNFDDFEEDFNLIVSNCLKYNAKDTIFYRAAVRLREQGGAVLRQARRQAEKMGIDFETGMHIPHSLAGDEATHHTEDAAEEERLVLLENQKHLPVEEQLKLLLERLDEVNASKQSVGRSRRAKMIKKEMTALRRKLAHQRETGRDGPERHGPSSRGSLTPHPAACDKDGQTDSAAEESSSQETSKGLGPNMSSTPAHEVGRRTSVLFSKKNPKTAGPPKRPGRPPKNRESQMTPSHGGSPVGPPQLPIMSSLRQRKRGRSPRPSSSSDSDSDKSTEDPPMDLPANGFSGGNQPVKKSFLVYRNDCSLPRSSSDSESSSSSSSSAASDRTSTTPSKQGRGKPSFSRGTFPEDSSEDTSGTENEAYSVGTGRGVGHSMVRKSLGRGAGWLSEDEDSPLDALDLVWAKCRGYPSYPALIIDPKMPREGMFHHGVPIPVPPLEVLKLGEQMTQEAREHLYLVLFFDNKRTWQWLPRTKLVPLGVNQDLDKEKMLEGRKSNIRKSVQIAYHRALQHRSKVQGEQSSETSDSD

CDK2 = CDK2 (Homo sapiens, UniProt P24941)
DMPK1 = target: T3, DMPK1 (Homo sapiens, UniProt Q09013)
T3 sequence (Q09013 1-629): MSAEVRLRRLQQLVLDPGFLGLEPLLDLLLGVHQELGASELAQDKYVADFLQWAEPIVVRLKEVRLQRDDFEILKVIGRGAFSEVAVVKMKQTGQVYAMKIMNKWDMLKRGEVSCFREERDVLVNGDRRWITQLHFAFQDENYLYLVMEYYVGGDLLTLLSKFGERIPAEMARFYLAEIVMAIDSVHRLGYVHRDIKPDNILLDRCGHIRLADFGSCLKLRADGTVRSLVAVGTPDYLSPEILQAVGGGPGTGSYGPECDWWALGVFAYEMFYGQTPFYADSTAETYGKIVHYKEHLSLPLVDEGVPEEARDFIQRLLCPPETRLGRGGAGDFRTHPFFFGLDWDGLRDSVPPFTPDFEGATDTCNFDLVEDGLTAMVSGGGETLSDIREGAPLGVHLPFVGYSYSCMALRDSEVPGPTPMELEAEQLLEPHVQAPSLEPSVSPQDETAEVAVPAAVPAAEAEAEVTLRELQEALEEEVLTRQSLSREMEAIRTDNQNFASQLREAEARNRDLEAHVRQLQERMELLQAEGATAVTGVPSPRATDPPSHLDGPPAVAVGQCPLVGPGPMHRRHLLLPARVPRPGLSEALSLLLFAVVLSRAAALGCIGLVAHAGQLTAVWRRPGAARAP

FLT1 = FLT1 (Homo sapiens, UniProt P17948)
Sequence of FLT1 (P17948 whole entry): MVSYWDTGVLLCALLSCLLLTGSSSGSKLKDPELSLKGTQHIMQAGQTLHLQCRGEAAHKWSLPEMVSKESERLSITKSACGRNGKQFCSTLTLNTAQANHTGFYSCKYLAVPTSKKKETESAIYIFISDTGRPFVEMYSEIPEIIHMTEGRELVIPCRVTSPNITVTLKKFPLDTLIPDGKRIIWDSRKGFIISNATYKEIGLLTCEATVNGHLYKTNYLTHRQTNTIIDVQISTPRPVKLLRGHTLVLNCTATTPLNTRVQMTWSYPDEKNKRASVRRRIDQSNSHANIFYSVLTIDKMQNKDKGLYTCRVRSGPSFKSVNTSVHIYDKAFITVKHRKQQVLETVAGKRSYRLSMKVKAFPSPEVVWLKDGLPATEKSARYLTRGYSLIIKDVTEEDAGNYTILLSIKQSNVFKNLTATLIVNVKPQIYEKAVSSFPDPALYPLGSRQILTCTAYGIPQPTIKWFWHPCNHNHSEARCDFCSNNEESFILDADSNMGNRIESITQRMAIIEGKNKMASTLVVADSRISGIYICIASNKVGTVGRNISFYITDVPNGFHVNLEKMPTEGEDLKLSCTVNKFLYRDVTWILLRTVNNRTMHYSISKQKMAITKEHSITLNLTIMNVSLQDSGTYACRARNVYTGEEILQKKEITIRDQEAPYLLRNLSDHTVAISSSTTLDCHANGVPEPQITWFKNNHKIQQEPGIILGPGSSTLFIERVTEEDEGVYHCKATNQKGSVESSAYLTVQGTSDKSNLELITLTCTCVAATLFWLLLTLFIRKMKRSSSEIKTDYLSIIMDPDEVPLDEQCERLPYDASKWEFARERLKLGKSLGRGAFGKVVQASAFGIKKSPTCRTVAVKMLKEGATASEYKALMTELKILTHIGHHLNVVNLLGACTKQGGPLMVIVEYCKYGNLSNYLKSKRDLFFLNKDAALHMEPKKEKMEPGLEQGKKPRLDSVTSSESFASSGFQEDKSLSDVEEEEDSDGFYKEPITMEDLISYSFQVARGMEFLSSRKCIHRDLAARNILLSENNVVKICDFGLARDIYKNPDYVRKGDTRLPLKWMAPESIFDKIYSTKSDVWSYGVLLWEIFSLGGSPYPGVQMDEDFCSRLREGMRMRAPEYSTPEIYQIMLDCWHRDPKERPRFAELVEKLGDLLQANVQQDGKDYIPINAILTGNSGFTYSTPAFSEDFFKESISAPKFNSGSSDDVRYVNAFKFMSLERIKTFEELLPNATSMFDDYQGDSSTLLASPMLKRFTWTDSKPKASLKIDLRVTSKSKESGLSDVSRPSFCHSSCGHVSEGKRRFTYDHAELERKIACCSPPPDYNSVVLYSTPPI

Sequence of NEK7 (Q8TDX7 whole entry): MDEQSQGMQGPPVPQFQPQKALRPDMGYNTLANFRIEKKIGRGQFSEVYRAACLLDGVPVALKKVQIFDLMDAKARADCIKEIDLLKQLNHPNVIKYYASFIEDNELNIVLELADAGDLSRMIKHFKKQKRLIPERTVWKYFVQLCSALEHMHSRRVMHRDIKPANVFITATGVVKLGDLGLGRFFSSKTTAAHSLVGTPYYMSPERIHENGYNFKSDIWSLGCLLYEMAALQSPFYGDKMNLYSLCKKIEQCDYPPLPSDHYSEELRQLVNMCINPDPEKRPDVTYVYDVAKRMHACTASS
Sequence of AAK1 (Q2M2I8 whole entry): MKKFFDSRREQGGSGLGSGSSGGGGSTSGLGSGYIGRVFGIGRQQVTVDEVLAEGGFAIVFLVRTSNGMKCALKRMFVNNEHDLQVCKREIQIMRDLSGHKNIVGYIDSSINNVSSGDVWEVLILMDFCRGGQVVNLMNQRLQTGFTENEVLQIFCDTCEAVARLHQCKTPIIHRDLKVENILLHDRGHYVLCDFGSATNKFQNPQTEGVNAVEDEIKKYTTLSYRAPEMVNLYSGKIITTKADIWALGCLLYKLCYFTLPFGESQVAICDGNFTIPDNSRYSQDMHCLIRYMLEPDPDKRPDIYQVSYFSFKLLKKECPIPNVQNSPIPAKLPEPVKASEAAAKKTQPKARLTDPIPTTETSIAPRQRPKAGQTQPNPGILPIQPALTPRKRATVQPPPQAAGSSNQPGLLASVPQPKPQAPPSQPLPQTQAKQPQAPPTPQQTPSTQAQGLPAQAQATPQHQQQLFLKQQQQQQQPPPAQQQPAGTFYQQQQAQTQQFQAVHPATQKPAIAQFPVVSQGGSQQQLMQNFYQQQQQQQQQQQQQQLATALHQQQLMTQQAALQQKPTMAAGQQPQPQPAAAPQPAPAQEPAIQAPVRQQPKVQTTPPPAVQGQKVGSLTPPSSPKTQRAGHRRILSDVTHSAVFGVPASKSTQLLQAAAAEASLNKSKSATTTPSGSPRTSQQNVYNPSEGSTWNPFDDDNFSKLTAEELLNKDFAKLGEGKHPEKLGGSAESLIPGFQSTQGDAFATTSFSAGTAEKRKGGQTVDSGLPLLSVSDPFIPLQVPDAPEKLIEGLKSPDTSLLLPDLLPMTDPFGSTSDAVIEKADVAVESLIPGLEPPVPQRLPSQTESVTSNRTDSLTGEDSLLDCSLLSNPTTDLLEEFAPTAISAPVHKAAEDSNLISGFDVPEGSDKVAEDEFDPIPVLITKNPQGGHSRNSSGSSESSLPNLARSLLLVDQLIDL

Structure (SMILES): CNc1ncc2cc(-c3cc(C(F)(F)F)ccc3Cl)c(=O)n(CCCCN)c2n1 [compound 9, 8-(4-Aminobutyl)-6-(2-chloro-5-(trifluoromethyl)phenyl)-2-(methylamino)pyrido[2,3-d]pyrimidin-7(8H)-one]
- ΔTm at 10 µM (AAK1; read-out: dTm 9): 0 °C
- ΔTm at 10 µM (NEK7; read-out: dTm 9): 0.4 °C
- ΔTm at 10 µM (VRK1; read-out: dTm 9): 0.1 °C
- ΔTm at 10 µM (BRPF1; read-out: dTm 9): -0.4 °C
- ΔTm at 10 µM (CDK2; read-out: dTm 9): 0.3 °C
- ΔTm at 10 µM (DMPK1; read-out: dTm 9): 1.4 °C
- ΔTm at 10 µM (FLT1; read-out: dTm 9): 5.3 °C

Structure (SMILES): CNc1ncc2cc(-c3cc(F)c(-c4cccc(C)n4)cc3F)c(=O)n(CCCCN)c2n1 [compound 12, 8-(4-Aminobutyl)-6-(2,5-difluoro-4-(6-methylpyridin-2-yl)phenyl)-2-(methylamino)pyrido[2,3-d]pyrimidin-7(8H)-one]
- ΔTm at 10 µM (AAK1; read-out: dTm 12): 0.5 °C
- ΔTm at 10 µM (NEK7; read-out: dTm 12): -2.1 °C
- ΔTm at 10 µM (VRK1; read-out: dTm 12): 0.3 °C
- ΔTm at 10 µM (BRPF1; read-out: dTm 12): -1.5 °C
- ΔTm at 10 µM (CDK2; read-out: dTm 12): 1.1 °C
- ΔTm at 10 µM (DMPK1; read-out: dTm 12): -0.1 °C
- ΔTm at 10 µM (FLT1; read-out: dTm 12): 2.8 °C

Further lines, results first:

- ΔTm at 10 µM (AAK1; read-out: dTm 11): 0.4 °C
- ΔTm at 10 µM (NEK7; read-out: dTm 11): -0.2 °C
- ΔTm at 10 µM (VRK1; read-out: dTm 11): 0.5 °C
- ΔTm at 10 µM (BRPF1; read-out: dTm 11): -0.7 °C
- ΔTm at 10 µM (CDK2; read-out: dTm 11): 0.7 °C
- ΔTm at 10 µM (DMPK1; read-out: dTm 11): 1.7 °C
- ΔTm at 10 µM (FLT1; read-out: dTm 11): 5.8 °C
Structure (SMILES): CNc1ncc2cc(-c3cc(Br)ccc3Br)c(=O)n(CCCCN)c2n1 [compound 11, 8-(4-Aminobutyl)-6-(2,5-dibromophenyl)-2-(methylamino)pyrido[2,3-d]pyrimidin-7(8H)-one]

- ΔTm at 10 µM (AAK1; read-out: dTm 8): 0.8 °C
- ΔTm at 10 µM (NEK7; read-out: dTm 8): -0.2 °C
- ΔTm at 10 µM (VRK1; read-out: dTm 8): 0.7 °C
- ΔTm at 10 µM (BRPF1; read-out: dTm 8): -0.5 °C
- ΔTm at 10 µM (CDK2; read-out: dTm 8): 0.6 °C
- ΔTm at 10 µM (DMPK1; read-out: dTm 8): 1.3 °C
- ΔTm at 10 µM (FLT1; read-out: dTm 8): 6 °C
Structure (SMILES): CNc1ncc2cc(-c3cc(Cl)ccc3Cl)c(=O)n(CCCCN)c2n1 [compound 8, 8-(4-Aminobutyl)-6-(2,5-dichlorophenyl)-2-(methylamino)pyrido[2,3-d]pyrimidin-7(8H)-one]

- ΔTm at 10 µM (AAK1; read-out: dTm 10): 0.5 °C
- ΔTm at 10 µM (NEK7; read-out: dTm 10): -0.5 °C
- ΔTm at 10 µM (VRK1; read-out: dTm 10): 0.7 °C
- ΔTm at 10 µM (BRPF1; read-out: dTm 10): -0.3 °C
- ΔTm at 10 µM (CDK2; read-out: dTm 10): 0.6 °C
- ΔTm at 10 µM (DMPK1; read-out: dTm 10): 1.8 °C
- ΔTm at 10 µM (FLT1; read-out: dTm 10): 5 °C
Structure (SMILES): CNc1ncc2cc(-c3cc(Cl)ccc3Br)c(=O)n(CCCCN)c2n1 [compound 10, 8-(4-Aminobutyl)-6-(2-bromo-5-chlorophenyl)-2-(methylamino)pyrido[2,3-d]pyrimidin-7(8H)-one]
